Test results published in paper PMC7909954 (eLife, 2021).
Where two headings read alike, the source gives them in different places.

How the values were obtained:
mMOR [1] = target: T1, mMOR (Mus musculus, UniProt P42866); test: biochemical
rKOR [2] = target: T2, rKOR (Rattus norvegicus, UniProt P34975); test: cell-based; conditions: HEK-293T, read-out: Emax% arrestin recruitment (BRET) rKOR
Y312W-hKOR [3] = target: T3, Y312W-hKOR (Homo sapiens, UniProt P41145, Y312W); test: cell-based; conditions: read-out: Emax% cAMP inhibition Y312W-hKOR
T3 sequence (P41145 whole entry Y312W): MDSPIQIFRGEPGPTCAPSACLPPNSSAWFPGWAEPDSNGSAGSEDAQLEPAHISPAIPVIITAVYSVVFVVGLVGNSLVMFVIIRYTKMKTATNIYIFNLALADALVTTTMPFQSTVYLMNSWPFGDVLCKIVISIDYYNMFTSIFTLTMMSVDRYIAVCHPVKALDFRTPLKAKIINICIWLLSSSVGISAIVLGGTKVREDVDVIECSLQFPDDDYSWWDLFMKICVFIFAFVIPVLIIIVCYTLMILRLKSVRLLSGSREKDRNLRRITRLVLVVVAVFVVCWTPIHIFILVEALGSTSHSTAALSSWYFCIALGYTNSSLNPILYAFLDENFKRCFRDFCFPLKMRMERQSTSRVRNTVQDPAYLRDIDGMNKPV

mMOR [4] = target: T1, mMOR; test: cell-based; set-up: expressed in transfected cells; host or cells: HEK-293T
mKOR [5] = target: T4, mKOR (Mus musculus, UniProt P33534); test: biochemical
T4 sequence (P33534 whole entry): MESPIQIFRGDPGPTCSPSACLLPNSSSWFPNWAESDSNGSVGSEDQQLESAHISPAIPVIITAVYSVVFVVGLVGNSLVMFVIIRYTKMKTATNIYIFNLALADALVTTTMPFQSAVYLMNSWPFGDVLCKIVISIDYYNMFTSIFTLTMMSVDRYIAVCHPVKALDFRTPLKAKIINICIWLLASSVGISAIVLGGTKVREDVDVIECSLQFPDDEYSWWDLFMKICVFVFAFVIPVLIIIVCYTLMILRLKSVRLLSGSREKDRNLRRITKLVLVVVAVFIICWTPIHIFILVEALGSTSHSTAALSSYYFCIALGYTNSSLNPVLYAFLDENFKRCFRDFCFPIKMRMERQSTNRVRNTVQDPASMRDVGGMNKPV

Y312W-hKOR [6] = target: T3, Y312W-hKOR; test: cell-based
mDOR [7] = target: T5, mDOR (Mus musculus, UniProt P32300); test: cell-based
T5 sequence (P32300 whole entry): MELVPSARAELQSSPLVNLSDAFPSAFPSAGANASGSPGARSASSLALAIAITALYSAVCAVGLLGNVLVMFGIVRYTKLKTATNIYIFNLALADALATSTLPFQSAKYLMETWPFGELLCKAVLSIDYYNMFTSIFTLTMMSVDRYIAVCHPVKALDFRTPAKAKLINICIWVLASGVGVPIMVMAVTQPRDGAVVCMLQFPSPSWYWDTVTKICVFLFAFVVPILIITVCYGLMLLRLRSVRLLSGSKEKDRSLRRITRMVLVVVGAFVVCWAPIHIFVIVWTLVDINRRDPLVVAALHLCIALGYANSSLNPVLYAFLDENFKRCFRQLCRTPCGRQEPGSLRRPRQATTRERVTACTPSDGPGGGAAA

KOR [8] = target: T6, KOR (Homo sapiens, UniProt P41145); test: cell-based
T6 sequence (P41145 whole entry): as the sequence (P41145 whole entry Y312W) above, with W312Y counted along it

rKOR [9] = target: T2, rKOR; test: cell-based; conditions: HEK-293T, read-out: Emax% G protein activation (BRET) rKOR
mMOR [10] = target: T1, mMOR; test: cell-based
rKOR [11] = target: T2, rKOR
mMOR [12] = target: T1, mMOR
KOR [13] = target: T6, KOR; test: cell-based; remark: listed apart in the source
DOR [14] = target: T7, DOR (Homo sapiens, UniProt P41143); test: cell-based
T7 sequence (P41143 whole entry): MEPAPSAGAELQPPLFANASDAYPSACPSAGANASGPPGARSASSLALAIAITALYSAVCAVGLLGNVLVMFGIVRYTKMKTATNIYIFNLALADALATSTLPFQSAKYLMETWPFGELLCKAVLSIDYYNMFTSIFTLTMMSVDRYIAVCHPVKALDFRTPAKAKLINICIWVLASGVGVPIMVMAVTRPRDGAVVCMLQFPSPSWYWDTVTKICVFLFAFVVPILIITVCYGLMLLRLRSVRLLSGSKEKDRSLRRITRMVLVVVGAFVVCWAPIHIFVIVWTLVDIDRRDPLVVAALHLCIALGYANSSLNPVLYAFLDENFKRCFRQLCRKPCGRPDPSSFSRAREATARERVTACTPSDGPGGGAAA

MOR [15] = target: T8, MOR (Homo sapiens, UniProt P35372); test: cell-based
T8 sequence (P35372 whole entry): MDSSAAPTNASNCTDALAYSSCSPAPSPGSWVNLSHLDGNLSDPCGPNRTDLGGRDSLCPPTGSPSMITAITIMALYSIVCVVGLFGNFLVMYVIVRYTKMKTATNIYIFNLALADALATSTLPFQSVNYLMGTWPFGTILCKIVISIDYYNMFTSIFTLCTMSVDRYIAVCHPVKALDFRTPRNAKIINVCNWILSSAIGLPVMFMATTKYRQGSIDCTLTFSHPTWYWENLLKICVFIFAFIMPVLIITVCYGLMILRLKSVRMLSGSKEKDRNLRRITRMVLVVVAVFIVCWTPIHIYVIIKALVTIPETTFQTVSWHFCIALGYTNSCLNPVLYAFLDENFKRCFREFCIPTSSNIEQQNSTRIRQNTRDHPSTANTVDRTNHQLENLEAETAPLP

mMOR [16] = target: T1, mMOR; test: biochemical; remark: listed apart in the source
mDOR [17] = target: T5, mDOR; test: biochemical; conditions: read-out: Emax mDOR [35S]GTPγS
Y312W-hKOR [18] = target: T3, Y312W-hKOR
KOR [19] = target: T6, KOR
mDOR [20] = target: T5, mDOR; test: cell-based; remark: listed apart in the source
MOR [21] = target: T8, MOR; test: cell-based; remark: listed apart in the source
DOR [22] = target: T7, DOR; test: cell-based; remark: listed apart in the source
MOR [23] = target: T8, MOR
mKOR [24] = target: T4, mKOR; test: biochemical; remark: listed apart in the source
[25] = transduction coefficient log(T/KA)

T2 sequence (P34975 whole entry): as the sequence (P33534 whole entry) above, with D11E, S17A, S51P, A308V counted along it
T1 sequence (P42866 whole entry): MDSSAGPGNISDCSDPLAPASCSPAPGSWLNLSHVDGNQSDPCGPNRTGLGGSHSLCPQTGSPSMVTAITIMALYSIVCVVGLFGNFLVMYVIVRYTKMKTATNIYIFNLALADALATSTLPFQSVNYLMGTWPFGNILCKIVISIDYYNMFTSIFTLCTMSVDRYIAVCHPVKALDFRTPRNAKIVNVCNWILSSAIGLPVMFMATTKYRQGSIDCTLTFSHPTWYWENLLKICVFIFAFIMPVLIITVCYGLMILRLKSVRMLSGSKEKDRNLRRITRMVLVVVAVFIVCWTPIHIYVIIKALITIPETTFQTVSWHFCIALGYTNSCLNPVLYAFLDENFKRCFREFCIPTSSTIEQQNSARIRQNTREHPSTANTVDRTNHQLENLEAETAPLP

## O=C(N[C@@H]1CCC2C3Cc4ccc(O)c5c4[C@@]2(CCN3CC2CC2)C1O5)c1cccc(I)c1 (stereo partly drawn) [MP1202, N-((7R,12bS)−3-(Cyclopropylmethyl)−9-hydroxy-2,3,4,4a,5,6,7,7a-octahydro-1H-4,12-methanobenzofuro[3,2-e]isoquinolin-7-yl)−3-iodobenzamide]
mMOR [1]
  Ki: 0.071 ± 0.031 nM
rKOR [2]
  Emax: 77 ± 5%
Y312W-hKOR [3]
  Emax: 101 ± 1.5%
mMOR [4]
  EC50: 3140 nM
  Emax% arrestin recruitment (BRET) mMOR: 53 ± 1.6%
mMOR [4]; HEK-293T, read-out: Emax% arrestin recruitment (BRET) mMOR
  Emax: 57%
mKOR [5]; EC50 mKOR [35S]GTPγS, ± SEM
  EC50: 0.13 ± 0.02 nM
mKOR [5]; read-out: Emax mKOR [35S]GTPγS
  Emax: 94 ± 5%
Y312W-hKOR [6]
  EC50: 3.4 nM
Y312W-hKOR [6]; read-out: Emax% arrestin recruitment (Tango) Y312W-hKOR
  Emax: 55 ± 2.6%
mDOR [7]; EC50 G protein activation (BRET) mDOR
  EC50: 7.03 nM
mDOR [7]; HEK-293T, read-out: Emax% G protein activation (BRET) mDOR
  Emax: 103 ± 4.6%
mDOR [7]; pEC50 G protein activation (BRET) mDOR, ± SEM
  EC50: 7.94 nM
KOR [8]; EC50 arrestin recruitment (Tango) hKOR
  EC50: 0.0457 nM
KOR [8]; HTLA, read-out: Emax% arrestin recruitment (Tango) hKOR
  Emax: 101 ± 1%
rKOR [9]
  Emax: 104 ± 2%
mMOR [10]; EC50 G protein activation (BRET) mMOR
  EC50: 0.63 nM
mMOR [10]; HEK-293T, read-out: Emax% G protein activation (BRET) mMOR
  Emax: 70%
rKOR [11]
  Log RA BRET-G rKOR: 9.906±0.088
  LogRA BRET-Arr rKOR: 8.791±0.171
  ΔΔlog RA (BRETG-BRETArr) rKOR: -0.399±0.27
rKOR [11]; vs U50,488h
  ΔlogRA BRET-G rKOR: 1.594±0.117
  ΔlogRA BRET-arr rKOR: 1.993±0.239
mMOR [12]
  Emax% G protein activation (BRET) mMOR: 61±1.5%
KOR [13]; EC50 cAMP inhibition hKOR
  EC50: 0.00139 nM
KOR [13]; HEK-293T, read-out: Emax% cAMP inhibition hKOR
  Emax: 97.9 ± 2.5%
DOR [14]; EC50 arrestin recruitment hDOR, Tango
  EC50: 18.1 nM
DOR [14]; HTLA, read-out: Emax% arrestin recruitment hDOR
  Emax: 26 ± 3.1%
MOR [15]; EC50 cAMP inhibition hMOR
  EC50: 0.077 nM
MOR [15]; HEK-293T, read-out: Emax% cAMP inhibition hMOR
  Emax: 92 ± 1.4%
mMOR [16]; EC50 mMOR [35S]GTPγS, ± SEM
  EC50: 0.32 ± 0.03 nM
mMOR [16]; read-out: Emax mMOR [35S]GTPγS
  Emax: 68 ± 1%
mDOR [17]
  Emax: 71 ± 2%
Y312W-hKOR [18]
  Log RA cAMP Y312W-hKOR: 10.63±0.005
  LogRA Tango Y312W-hKOR: 8.091±0.051
  ΔΔlog RA (cAMP-Tango) Y312W-hKOR: 1.53±0.073
Y312W-hKOR [18]; vs U50,488h
  Bias factor (cAMP-Tango) Y312W-hKOR: 34
  ΔlogRA Tango Y312W-hKOR: 0.532±0.073
  ΔlogRA cAMP Y312W-hKOR: 2.062±0.007
KOR [19]
  ΔΔlog RA (cAMP-Tango) hKOR: -0.19±0.072
KOR [19]; [25]
  Log RA cAMP hKOR: 11.88±0.050
  LogRA Tango hKOR: 10.30±0.004
KOR [19]; vs U50,488h
  ΔlogRA Tango hKOR: 1.856±0.006
  ΔlogRA cAMP hKOR: 1.66±0.072
mDOR [20]; EC50 arrestin recruitment (BRET) mDOR
  EC50: 525 nM
mDOR [20]; HEK-293T, read-out: Emax% arrestin recruitment (BRET) mDOR
  Emax: 26 ± 2.3%
MOR [21]
  EC50: 26.8 nM
MOR [21]; HTLA, read-out: Emax% arrestin recruitment (Tango) hMOR
  Emax: 53 ± 2%
DOR [22]; EC50 cAMP inhibition hDOR
  EC50: 8.18 nM
DOR [22]; HEK-293T, read-out: Emax% cAMP inhibition hDOR
  Emax: 99 ± 2.2%
MOR [23]
  Bias factor (cAMP-Tango) hMOR: 31
  Log RA cAMP hMOR: 9.99±0.012
  LogRA Tango hMOR: 7.24±0.002
  ΔlogRA Tango hMOR: 0.058±0.002
  ΔlogRA cAMP hMOR: 1.55±0.016
  ΔΔlog RA (cAMP-Tango) hMOR: 1.49±0.016
mKOR [24]
  Ki: 0.11 ± 0.064 nM
